Test results published in article PMC2782669 (Journal of the American Chemical Society, 2009).
Entries after “also recorded” stand apart in the source; their conditions may differ. Where two headings read alike, the source gives them in different places.

Tests used:
[1] = system: B. subtilis HB5600 (dhbA∷spc); assay: Disc diffusion growth promotion assay, HB5600; type: cell-based; conditions: in the presence of 2,2′-dipyridyl
esterase BesA [2] = assay: BesA-catalyzed hydrolysis of apo siderophores followed by HPLC; type: biochemical, B. cereus ATCC 14579; conditions: 72 nM enzyme, 64 μM siderophore
B. subtilis ATCC 6051 [3] = conditions: cited from earlier work
esterase Fes [4] = conditions: cited from earlier work
[5] = system: B. subtilis HB5625 (feuA∷spc dhbA∷mls); assay: Disc diffusion growth promotion assay, HB5625; type: cell-based; conditions: in the presence of 2,2′-dipyridyl
esterase Fes [6] = assay: Fes-catalyzed hydrolysis of siderophores; type: biochemical; conditions: Fes from Shigella flexneri, 64 μM substrates, 72 nM enzymes, HPLC
[7] = Strong acid hydrolysis followed by HPLC; type: physicochemical; conditions: 1 mg/mL, 6 M HCl, stirred 12 h (overnight)
[8] = cited from earlier work; for log K3: [LH2]^4-; for log K4: [LH3]^3-; for log K5: [LH4]^2-; for log K6: [LH5]^-; for log K2: [LH]^5-; for log K1: [L]^6-; for Σlog K1-6: sum of the stepwise protonation constants
[9] = cited from earlier work; for log β110: [FeL]^3-; for pM(Fe^III): pH 7.4, 1 μM total iron, 10 μM total ligand
[10] = Potentiometric titration, ligand protonation constants; type: physicochemical
[11] = type: physicochemical
[12] = target: substrate-binding protein FeuA (Bacillus subtilis, UniProt P40409); assay: Fluorescence quenching binding assay with FeuA-His6; design: species or system B. subtilis 168
esterase BesA [13] = assay: BesA-catalyzed hydrolysis of ferric complexes followed by UV-Vis spectroscopy; type: biochemical, B. cereus ATCC 14579; conditions: 100 μM substrate, 1 μM enzyme, 75 mM HEPES pH 7.5, UV-Vis over 12 h
E. coli = conditions: incorporated through FepA; cited from earlier work
B. subtilis ATCC 6051 [14] = assay: 55Fe-siderophore transport assay; type: cell-based; conditions: 37 °C, iron-limited medium

Sequence of substrate-binding protein FeuA (P40409 21-317): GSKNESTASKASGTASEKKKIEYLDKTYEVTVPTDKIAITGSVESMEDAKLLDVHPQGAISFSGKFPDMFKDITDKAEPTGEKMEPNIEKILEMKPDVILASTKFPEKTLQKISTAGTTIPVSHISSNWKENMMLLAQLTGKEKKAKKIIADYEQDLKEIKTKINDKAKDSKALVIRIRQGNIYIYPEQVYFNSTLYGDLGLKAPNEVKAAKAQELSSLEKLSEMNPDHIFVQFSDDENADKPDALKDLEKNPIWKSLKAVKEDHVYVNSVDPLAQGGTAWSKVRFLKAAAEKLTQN

O=C(N[C@@H]1COC(=O)[C@H](NC(=O)c2cccc(O)c2O)COC(=O)[C@H](NC(=O)c2cccc(O)c2O)COC1=O)c1cccc(O)c1O (single isomer, unassigned; ent d) [D-Ent, D-enterobactin]
growth promotion of B. subtilis HB5600 (in words) [1]: no significant zone of growth stimulation
hydrolysis of the apo siderophore by BesA (esterase BesA [2]): no effect; also recorded: did not affect
transport properties in B. subtilis (B. subtilis ATCC 6051 [3]): same transport properties as Ent
hydrolysis by Fes (esterase Fes [4]): neither apo-D-Ent nor [Fe^III(D-Ent)]^3- are hydrolyzed by Fes

C[C@H]1OC(=O)[C@@H](NC(=O)CNC(=O)c2cccc(O)c2O)[C@@H](C)OC(=O)[C@@H](NC(=O)CNC(=O)c2cccc(O)c2O)[C@@H](C)OC(=O)[C@H]1NC(=O)CNC(=O)c1cccc(O)c1O [BB, bacillibactin]
growth promotion of B. subtilis HB5600 (in words) [1]: promoted growth
growth stimulation of B. subtilis HB5625, feuA deleted (in words) [5]: prevented growth stimulation
hydrolysis of the apo siderophore by BesA (esterase BesA [2]): hydrolyzed sequentially
hydrolysis by Fes (esterase Fes [6]): did not react
resistance to acid hydrolysis [7]: remained essentially intact
log K3 [8]: 12.1
log K4 [8]: 8.43
log K5 [8]: 7.43
log K6 [8]: 6.77
log K2 [8]: 12.1
log K1 [8]: 12.1
Σlog K1-6 [8]: 58.93
log β110 [9]: 47.6
pM(Fe^III) [9]: 33.1

O=C(CNC(=O)c1cccc(O)c1O)N[C@@H]1COC(=O)[C@H](NC(=O)CNC(=O)c2cccc(O)c2O)COC(=O)[C@H](NC(=O)CNC(=O)c2cccc(O)c2O)COC1=O [D-SGC, N,N′,N″-Tris[2,3-dihydroxybenzoyl-glycinyl]cyclotri-D-seryl trilactone]
growth promotion of B. subtilis HB5600 (in words) [1]: no significant zone of growth stimulation
hydrolysis of the apo siderophore by BesA (esterase BesA [2]): no effect; also recorded: did not affect
hydrolysis by Fes (esterase Fes [6]): did not react

O=C(N[C@H]1COC(=O)[C@@H](NC(=O)c2cccc(O)c2O)COC(=O)[C@@H](NC(=O)c2cccc(O)c2O)COC1=O)c1cccc(O)c1O [Ent, Enterobactin]
growth promotion of B. subtilis HB5600 (in words) [1]: promoted growth
growth stimulation of B. subtilis HB5625, feuA deleted (in words) [5]: prevented growth stimulation
hydrolysis of the apo siderophore by BesA (esterase BesA [2]): hydrolyzed sequentially
resistance to acid hydrolysis [7]: completely degraded
log K3 [8]: 12.1
log K4 [8]: 8.6
log K5 [8]: 7.5
log K6 [8]: 6.0
log K2 [8]: 12.1
log K1 [8]: 12.1
Σlog K1-6 [8]: 58.4
log β110 [9]: 49
pM(Fe^III) [9]: 34.3
hydrolysis by Fes (esterase Fes [4]): subject to enzymatic sequential hydrolysis

O=C(CNC(=O)c1cccc(O)c1O)N[C@H]1COC(=O)[C@@H](NC(=O)CNC(=O)c2cccc(O)c2O)COC(=O)[C@@H](NC(=O)CNC(=O)c2cccc(O)c2O)COC1=O [SGC, SERglyCAM]
log K4 ([10]; [LH3]^3-, 0.1 M KCl, 25 °C): 8.37(3)
log K5 ([10]; [LH4]^2-, 0.1 M KCl, 25 °C): 7.54(2)
log K6 ([10]; [LH5]^-, 0.1 M KCl, 25 °C): 6.68(3)
Σlog K1-6 ([10]; sum of the stepwise protonation constants): 58.89
log β110 ([11]; [FeL]^3-, competition with EDTA, 0.1 M KCl, 25 °C, pH 5 to 7.5): 44.1(2)
pM(Fe^III) ([11]; pH 7.4, 1 μM total iron, 10 μM total ligand): 29.6
growth promotion of B. subtilis HB5600 (in words) [1]: promoted growth
growth stimulation of B. subtilis HB5625, feuA deleted (in words) [5]: prevented growth stimulation
hydrolysis of the apo siderophore by BesA (esterase BesA [2]): hydrolyzed sequentially

C[C@H]1OC(=O)[C@@H](NC(=O)CNC(=O)c2cccc([O-])c2[O-])[C@@H](C)OC(=O)[C@@H](NC(=O)CNC(=O)c2cccc([O-])c2[O-])[C@@H](C)OC(=O)[C@H]1NC(=O)CNC(=O)c1cccc([O-])c1[O-].[Fe+3] [[Fe^III(BB)]^3-]
Kd [12]: 15 nM
reaction of the ferric complex with BesA (esterase BesA [13]): the UV-Vis spectra changed

O=C(N[C@@H]1COC(=O)[C@H](NC(=O)c2cccc([O-])c2[O-])COC(=O)[C@H](NC(=O)c2cccc([O-])c2[O-])COC1=O)c1cccc([O-])c1[O-].[Fe+3] [[Fe^III(D-Ent)]^3-]
Kd [12]: 10 nM
reaction of the ferric complex with BesA (esterase BesA [13]): No change in the absorption spectra
hydrolysis by Fes (esterase Fes [4]): neither apo-D-Ent nor [Fe^III(D-Ent)]^3- are hydrolyzed by Fes
growth promotion of E. coli (E. coli): does not promote growth

O=C(N[C@H]1COC(=O)[C@@H](NC(=O)c2cccc([O-])c2[O-])COC(=O)[C@@H](NC(=O)c2cccc([O-])c2[O-])COC1=O)c1cccc([O-])c1[O-].[Fe+3] [[Fe^III(Ent)]^3-]
Kd [12]: 19 nM
reaction of the ferric complex with BesA (esterase BesA [13]): the UV-Vis spectra changed
hydrolysis by Fes (esterase Fes [4]): subject to enzymatic sequential hydrolysis

O=C(CNC(=O)c1cccc([O-])c1[O-])N[C@H]1COC(=O)[C@@H](NC(=O)CNC(=O)c2cccc([O-])c2[O-])COC(=O)[C@@H](NC(=O)CNC(=O)c2cccc([O-])c2[O-])COC1=O.[Fe+3] [[Fe^III(SGC)]^3-]
Kd [12]: 52 nM
iron transport into B. subtilis (B. subtilis ATCC 6051 [14]): transported into B. subtilis at levels similar to that of [Fe^III(BB)]^3-
reaction of the ferric complex with BesA (esterase BesA [13]): the UV-Vis spectra changed
